Data as given in paper PMC7373766, “In vitro and in vivo Evaluation of in silico Predicted Pneumococcal UDPG:PP Inhibitors” (Frontiers in Microbiology, 2020).

What was measured:
[1] = Cytotoxicity assay (resazurin); type: cell-based; settings: human, MRC-5 cells, maximal tested concentration 64 μM
Protocol: MRC-5 cells were grown into polystyrene 96-well plates at an initial concentration of 1.5 × 10^5 cells/mL cells per well and incubated at 37°C and 5% CO2. In each well, 190 μL of cell suspension was added together with 10 μL of watery compound dilutions. Cell growth was compared to untreated control wells (100% cell growth) and medium-control wells (0% cell growth). After 3 days of incubation, cell viability was assessed using resazurin as described earlier. […] Tamoxifen was used as a positive control.

L. monocytogenes = system: L. monocytogenes; set-up: method as in Kuenemann et al., 2018; settings: previous research; ref Kuenemann et al., 2018; cited from earlier work
[2] = system: S. pneumoniae polysaccharide capsule / bacterial size; test: FITC-dextran exclusion assay (degree of encapsulation); type: cell-based
Protocol: The degree of encapsulation was determined by measuring the zone of exclusion of FITC-dextran (200 kDa, Sigma-Aldrich), as described previously ([Gates et al., 2004]; [Weinberger et al., 2009]; [Cools et al., 2018]). Briefly, bacteria were grown as described earlier until logarithmic phase with or without 50 μM of compound, centrifuged for 5 min at 5000 g and resuspended in PBS. To 100 μL of bacterial suspension 20 μL FITC-dextran (10 μg/mL in water) was added and 10 μL of this suspension was subsequently used to create wet mounts with cover slips. The slides were viewed on a Zeiss Observer.Z1 microscope with a 100x objective, and fluorescent images were captured with a Zeiss AxioCam MRm camera. The images were converted into grayscale and analyzed using ImageJ software. The area of FITC exclusion was determined. For each fluorescent image, a brightfield image was also recorded in order to count the number of bacteria per chain. For each strain, the mean of 150–300 cells was determined, and at least two images were collected from each of at least two independently prepared slides.

S. pneumoniae = test: Galleria mellonella killing assay; type: in vivo
Protocol: Larvae were purchased from a local vendor (Anaconda Reptiles, Kontich, Belgium) and stored in wood chips at 15°C before use. Four hours before use, larvae were put at 4°C. A sterile 20 μL Hamilton syringe was used to inject 10 μL aliquots of bacterial suspensions into the hindmost left proleg of Galleria mellonella. Bacteria were grown mid logarithmic phase for 6 h with or without 1, 10, 50 or 200 μM compounds, washed and resuspended in PBS before infection. The control group was injected with 10 μL PBS. A minimum of 10 larvae per group was used. Following the injections, larvae were incubated at 37°C in the dark for several days to allow progression of the pneumococcal infection. Every 24 h, larvae were scored as dead or alive. Larvae were determined dead when no signs of movement could be observed in response to external stimuli. For each strain, at least four independent repeats were carried out.

Row | SMILES | CC50 at 3 days [1] | Activity on L. monocytogenes (L. monocytogenes) | Effect on bacterial size (area of FITC-dextran exclusion) ([2]; strain R6, 50 μM of compound) | Effect on larval survival, dose-response (S. pneumoniae; strain TIGR4 grown with 1 μM compound) | Effect on larval survival, dose-response (S. pneumoniae; strain TIGR4 grown with 10 μM compound) | Effect on larval survival, dose-response (S. pneumoniae; strain TIGR4 grown with 50 μM compound) | Effect on larval survival, dose-response (S. pneumoniae; strain TIGR4 grown with 200 μM compound) | Effect on bacterial size (area of FITC-dextran exclusion) ([2]; strain M23 galU mutant, 50 μM of compound)
1 | NCCCOc1cccc(C(=O)NC2CCC(n3cc(F)c(=O)[nH]c3=O)C(O)C2O)c1 (centres unmarked) [BDG 33920985] | 43.7 µM | active | – | – | – | – | – | –
2 | NCCOc1cccc(C(=O)NC2CCCC(n3ccc(=O)[nH]c3=O)C2O)c1 (centres unmarked) [BDH 33910157] | > 64 µM | active | no effect | inactive | inactive | significantly improved larval survival | significantly improved larval survival | –
3 | NCCCOc1cccc(C(=O)NC2CCCC(n3cnc4c(N)ncnc43)C2O)c1 (centres unmarked) [BDH 33910188] | > 64 µM | – | – | – | – | – | – | no effect
